Source: patent US12187716B2, “TYK2 kinase inhibitors” (SAREUM LIMITED, priority 2018, dated 2025)
Like-named read-outs stand apart in the source and are kept apart here.

Key:
CYP2C19 = target: T1, CYP2C19 (Homo sapiens, UniProt P33261); assay: Cytochrome P450 inhibition assay, CYP2C19; format: in vitro ADME; conditions: pooled human liver microsomes, probe S-(+)-Mephenytoin
T1 construct: from tissue; host or cells: pooled human liver microsomes
Procedure: (§1) The susceptibility of Compounds (2) and (3) to potential drug-drug interactions was tested by assaying their abilities to inhibit various cytochrome P450 isoforms. Prior art Compound B (see Example 3 above) was also tested as a comparative example. Test compounds, prepared and serially diluted in DMSO, were incubated at six concentrations (1% DMSO final) with pooled human liver microsomes in the presence of probe substrate for each isoform, and their effects on the metabolism of probe substrates determined. Incubations (in 96-well plates) were carried out at 37° C. in 0.1 M Tris buffer, pH 7.4, with reactions initiated by the addition of cofactor, NADPH (1 mM final concentration). At the specified times, reactions were terminated with acetonitrile containing an analytical internal standard, samples were centrifuged and the supernatant fractions were analysed for probe substrate metabolites by mass spectrometry (LC-MS/MS). The instrument responses were normalised to internal standard and compared to the appropriate solvent controls to determine the amount of metabolite formed from the probe substrates relative to these “uninhibited” controls. […] [table]

[1] = system: IL-17F production in Th17 cells; assay: IL-17F production inhibition in Th17 cells derived from human peripheral blood CD4CD45RO+ cells; format: cell-based
Procedure: (§2) Fresh human Peripheral blood CD4CD45RO+ cells were purchased commercially (Generon, UK); 3 separate vials from 3 different volunteers for experimental replicates. Cells were grown in T-cell medium (Thermo Fisher) containing 10 ng/ml recombinant human IL-1B (R&D Systems), IL-23 (R&D Systems), TGF-B1 (R&D Systems) and 50 ng/ml IL-6 (R&D Systems) together with anti-CD3/CD28 magnetic Dynabeads (Thermo Fisher). These were grown for 11 days to induce expansion of Th17 cells. Prior to plating for assays cells were grown overnight in T-cell medium supplemented with human serum (1%) overnight. Media was removed and replaced with unsupplemented RPMI for 4 h prior to assay.
To measure IL-17F levels, 200,000 cells were plated into a 96 well plate and preincubated with compounds for 30 minutes followed by stimulation with recombinant IL-23 at 6.25 ng/ml and recombinant human IL-1B at 0.1 ng/ml for 48 h. Supernatants were removed and IL-17F levels measured using a commercially available ELISA kit (Thermo Fisher; BMS2037-2).
(§3) ELISAs were carried out according to manufacturers instructions and absorbance read using a microplate reader (Thermo Fisher; Varioskan). Data was normalised to the response in untreated samples using the formula: % of control=((Stimulated sample Conc.−unstimulated sample Conc.)×100)/(Control stimulated Conc.−control unstimulated Conc.)
(§4) Graphpad Prism 8.1.0 was used to calculate I050 values using a Nonlinear 4 parameter logistic regression model (4PL).

CYP3A4 = target: T2, CYP3A4 (Homo sapiens, UniProt P08684); assay: Cytochrome P450 inhibition assay, CYP3A4; format: in vitro ADME; conditions: pooled human liver microsomes
T2 construct: from tissue; host or cells: pooled human liver microsomes
T2 sequence (P08684 whole entry): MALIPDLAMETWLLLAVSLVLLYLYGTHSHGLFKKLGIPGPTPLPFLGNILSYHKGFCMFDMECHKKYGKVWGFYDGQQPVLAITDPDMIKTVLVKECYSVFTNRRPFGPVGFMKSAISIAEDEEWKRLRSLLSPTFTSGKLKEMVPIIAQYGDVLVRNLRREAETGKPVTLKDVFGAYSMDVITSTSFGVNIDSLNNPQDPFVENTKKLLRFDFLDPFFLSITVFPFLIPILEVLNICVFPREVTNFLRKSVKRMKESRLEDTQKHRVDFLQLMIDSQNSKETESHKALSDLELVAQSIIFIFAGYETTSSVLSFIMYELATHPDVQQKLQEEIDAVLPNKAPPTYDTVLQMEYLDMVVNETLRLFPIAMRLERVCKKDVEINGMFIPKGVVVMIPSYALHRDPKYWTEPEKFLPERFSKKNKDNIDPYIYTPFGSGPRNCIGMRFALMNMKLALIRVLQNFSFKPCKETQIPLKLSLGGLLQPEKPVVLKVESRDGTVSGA
Procedure: as §1

CYP2C9 = target: T3, CYP2C9 (Homo sapiens, UniProt P11712); assay: Cytochrome P450 inhibition assay, CYP2C9; format: in vitro ADME; conditions: pooled human liver microsomes, probe Diclofenac
T3 construct: from tissue; host or cells: pooled human liver microsomes
T3 sequence (P11712 whole entry): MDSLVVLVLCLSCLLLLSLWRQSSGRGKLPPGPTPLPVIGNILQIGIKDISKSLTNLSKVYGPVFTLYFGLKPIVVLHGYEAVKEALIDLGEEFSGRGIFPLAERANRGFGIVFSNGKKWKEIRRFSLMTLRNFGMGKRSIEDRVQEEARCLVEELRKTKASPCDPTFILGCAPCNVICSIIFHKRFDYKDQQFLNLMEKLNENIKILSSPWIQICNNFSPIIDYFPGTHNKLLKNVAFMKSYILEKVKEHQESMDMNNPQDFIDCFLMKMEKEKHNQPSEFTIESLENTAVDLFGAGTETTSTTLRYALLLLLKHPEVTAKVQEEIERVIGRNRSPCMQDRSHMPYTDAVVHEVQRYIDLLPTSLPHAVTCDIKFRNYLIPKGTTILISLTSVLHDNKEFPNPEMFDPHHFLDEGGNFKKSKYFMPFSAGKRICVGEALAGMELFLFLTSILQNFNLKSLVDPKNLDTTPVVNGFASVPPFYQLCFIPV
Procedure: as §1

[2] = system: STAT3 phosphorylation in Th17 cells; assay: Inhibition of STAT3 phosphorylation in Th17 cells derived from human peripheral blood CD4CD45RO+ cells; format: cell-based
Procedure: as §2
To measure pSTAT3 levels, 200,000 cells were plated into a 96 well plate and preincubated with compounds for 30 minutes followed by stimulation with recombinant IL-23 at 12.5 ng/ml for 15 minutes then lysed using cell lysis buffer. pSTAT3 levels in the lysates were measured using a commercially available ELISA kit (Thermo Fisher; 85-86102-11).
as §3, §4

JAK2 = JAK2 (Homo sapiens, UniProt O60674); assay: JAK2 kinase inhibition assay (33P-ATP filter binding, Reaction Biology); conditions: for selectivity for TYK2 compared to JAK2: biochemical assays; for Selectivity v TYK2: JAK2: ratio of JAK2 IC50 to TYK2 IC50
Chain of JAK2 (O60674 809-1132): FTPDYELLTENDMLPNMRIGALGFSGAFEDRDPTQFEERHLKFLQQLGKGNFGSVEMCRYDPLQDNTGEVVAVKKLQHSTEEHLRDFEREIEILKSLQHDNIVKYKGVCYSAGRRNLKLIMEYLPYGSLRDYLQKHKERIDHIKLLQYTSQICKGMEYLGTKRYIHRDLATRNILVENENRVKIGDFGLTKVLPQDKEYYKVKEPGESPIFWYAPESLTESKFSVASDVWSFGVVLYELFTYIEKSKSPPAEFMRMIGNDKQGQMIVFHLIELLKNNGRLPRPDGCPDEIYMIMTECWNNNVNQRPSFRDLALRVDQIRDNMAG

CYP1A2 = target: T4, CYP1A2 (Homo sapiens, UniProt P05177); assay: Cytochrome P450 inhibition assay, CYP1A2; format: in vitro ADME; conditions: pooled human liver microsomes, probe Phenacetin
T4 sequence (P05177 1-516): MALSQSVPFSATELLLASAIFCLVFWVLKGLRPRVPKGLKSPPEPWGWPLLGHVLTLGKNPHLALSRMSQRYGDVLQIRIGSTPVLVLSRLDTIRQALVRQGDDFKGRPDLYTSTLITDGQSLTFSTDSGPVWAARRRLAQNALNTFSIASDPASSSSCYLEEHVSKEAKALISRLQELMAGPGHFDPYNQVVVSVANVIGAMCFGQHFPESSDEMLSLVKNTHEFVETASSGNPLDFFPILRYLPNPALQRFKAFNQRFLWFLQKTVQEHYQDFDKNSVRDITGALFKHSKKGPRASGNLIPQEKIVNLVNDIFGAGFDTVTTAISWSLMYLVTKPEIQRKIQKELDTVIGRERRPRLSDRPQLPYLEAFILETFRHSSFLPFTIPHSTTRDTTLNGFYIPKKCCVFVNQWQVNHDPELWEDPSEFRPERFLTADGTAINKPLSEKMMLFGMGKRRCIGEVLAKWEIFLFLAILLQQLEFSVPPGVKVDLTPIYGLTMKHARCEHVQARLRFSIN
Procedure: as §1

CYP2D6 = target: T5, CYP2D6 (Homo sapiens, UniProt P10635); assay: Cytochrome P450 inhibition assay, CYP2D6; format: in vitro ADME; conditions: pooled human liver microsomes, probe Dextromethorphan
T5 construct: from tissue; host or cells: pooled human liver microsomes
T5 sequence (P10635 whole entry): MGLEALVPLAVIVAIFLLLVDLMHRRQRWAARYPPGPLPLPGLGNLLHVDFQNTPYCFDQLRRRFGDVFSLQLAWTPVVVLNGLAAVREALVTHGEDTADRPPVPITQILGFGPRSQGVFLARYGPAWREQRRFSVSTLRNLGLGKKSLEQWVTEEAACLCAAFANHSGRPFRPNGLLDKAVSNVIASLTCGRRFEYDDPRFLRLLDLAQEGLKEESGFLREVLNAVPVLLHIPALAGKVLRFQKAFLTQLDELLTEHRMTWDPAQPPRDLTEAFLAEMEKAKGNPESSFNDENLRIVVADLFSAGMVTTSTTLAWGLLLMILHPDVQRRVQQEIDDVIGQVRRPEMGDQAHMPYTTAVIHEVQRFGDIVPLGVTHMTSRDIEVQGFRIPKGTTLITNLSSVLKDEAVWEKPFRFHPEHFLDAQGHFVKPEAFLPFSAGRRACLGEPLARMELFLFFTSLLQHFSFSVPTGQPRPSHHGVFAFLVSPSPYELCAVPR
Procedure: as §1

[3] = Hepatocyte stability assay, human; format: in vitro ADME, human (mixed gender); conditions: both sexes, pooled hepatocytes, 37° C.
Procedure: (§5) Test and control compounds were incubated with hepatocytes at 37° C. Aliquots were removed at 6 timepoints over a one hour period. Samples were centrifuged and the supernatant fractions analysed for parent compound by mass spectrometry (LC-MS/MS).
(§6) The amount of compound remaining (expressed as %) was determined from the MS response in each sample relative to that in the T=0 samples, and used to determine the half-life and intrinsic clearance of the compound.

[4] = Hepatocyte stability assay, dog; format: in vitro ADME; conditions: male, Beagle, pooled hepatocytes, 37° C.
Procedure: as §5, §6

[5] = IL-23 6.25 ng/ml + IL-1B 0.1 ng/ml, 48 h, Donor 1, read-out: IL17-F Production Inhibition IC50, Donor 1
[6] = IL-23 6.25 ng/ml + IL-1B 0.1 ng/ml, 48 h, Donor 2, read-out: IL17-F Production Inhibition IC50, Donor 2
[7] = IL-23 6.25 ng/ml + IL-1B 0.1 ng/ml, 48 h, Donor 3, read-out: IL17-F Production Inhibition IC50, Donor 3
[8] = average of 3 donors, read-out: IL17-F Production Inhibition IC50, Average
[9] = probe Midazolam, read-out: CYP3A4 (MID) IC50
[10] = probe Testosterone, read-out: CYP3A4 (Test) IC50
[11] = 0.25 h, IL-23 12.5 ng/ml, 15 minutes, Donor 1, read-out: Inhibition of STAT3 phosphorylation IC50, Donor 1
[12] = 0.25 h, IL-23 12.5 ng/ml, 15 minutes, Donor 2, read-out: Inhibition of STAT3 phosphorylation IC50, Donor 2
[13] = 0.25 h, IL-23 12.5 ng/ml, 15 minutes, Donor 3, read-out: Inhibition of STAT3 phosphorylation IC50, Donor 3
[14] = average of 3 donors, read-out: Inhibition of STAT3 phosphorylation IC50, Average

T1 sequence (P33261 whole entry): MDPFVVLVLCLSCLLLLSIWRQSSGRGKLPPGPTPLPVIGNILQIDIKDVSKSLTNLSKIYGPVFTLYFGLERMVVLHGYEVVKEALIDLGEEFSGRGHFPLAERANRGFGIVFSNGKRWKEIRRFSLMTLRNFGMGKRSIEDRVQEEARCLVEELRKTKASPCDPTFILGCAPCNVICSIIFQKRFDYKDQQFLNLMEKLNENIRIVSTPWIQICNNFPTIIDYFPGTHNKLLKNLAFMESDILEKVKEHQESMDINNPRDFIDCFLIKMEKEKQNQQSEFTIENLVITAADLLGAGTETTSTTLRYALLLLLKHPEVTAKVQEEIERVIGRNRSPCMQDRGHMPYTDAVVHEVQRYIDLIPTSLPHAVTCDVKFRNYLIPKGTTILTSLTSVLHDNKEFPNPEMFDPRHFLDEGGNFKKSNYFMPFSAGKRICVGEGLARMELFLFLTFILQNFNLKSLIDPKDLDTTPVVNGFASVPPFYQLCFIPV

NC(=O)c1nc(-c2c(Cl)cccc2Cl)oc1Nc1ccc(C(=O)N2CCS(=O)(=O)CC2)cc1 [Compound (2)]
IC50 (CYP2C19): > 30000 nM | IC50 [1, 5]: 117 nM | IC50 [1, 6]: 134 nM | IC50 [1, 7]: 64 nM | IC50 [1, 8]: 105 nM | IC50 (CYP3A4; [9]): > 30000 nM | IC50 (CYP3A4; [10]): > 30000 nM | IC50 (CYP2C9): 26000 nM | IC50 [2, 11]: 69 nM | IC50 [2, 12]: 29 nM | IC50 [2, 13]: 55 nM | IC50 [2, 14]: 51 nM | IC50 (JAK2): 50 nM | selectivity for TYK2 compared to JAK2 (JAK2): approximately 25 fold | Selectivity v TYK2: JAK2 (JAK2): 26.3 | IC50 (CYP1A2): > 30000 nM | IC50 (CYP2D6): > 30000 nM

NC(=O)c1nc(-c2c(Cl)cccc2Cl)oc1Nc1ccc(C(=O)N2CCOCC2)cc1 [Comparative Compound B, 2-(2,6-dichloro-phenyl)-5-[4-(morpholine-4-carbonyl)-phenylamino]-oxazole-4-carboxylic acid amide, reference compound]
IC50 (CYP2C19): > 30000 nM | hepatocyte CLint [3]: 9 µL/min/1e6 cells | IC50 [1, 5]: 243 nM | IC50 [1, 6]: 217 nM | IC50 [1, 7]: 148 nM | IC50 [1, 8]: 203 nM | IC50 (CYP3A4; [9]): > 30000 nM | IC50 (CYP3A4; [10]): > 30000 nM | IC50 (CYP2C9): 4400 nM | IC50 [2, 11]: 111 nM | IC50 [2, 12]: 17 nM | IC50 [2, 13]: 54 nM | IC50 [2, 14]: 61 nM | IC50 (CYP1A2): > 30000 nM | IC50 (CYP2D6): > 30000 nM | hepatocyte CLint [4]: 29.8 µL/min/1e6 cells

NC(=O)c1nc(-c2c(Cl)cccc2Cl)oc1Nc1ccc(C(=O)N2CCS(=O)(=O)CC2)c(F)c1 [Compound (3)]
IC50 (CYP2C19): 29000 nM | hepatocyte CLint [3]: 4.2 µL/min/1e6 cells | half-life ([3]; read-out: Human T1/2): 5.58 h | IC50 [1, 5]: 57 nM | IC50 [1, 6]: 548 nM | IC50 [1, 7]: 105 nM | IC50 [1, 8]: 237 nM | IC50 (CYP3A4; [9]): > 30000 nM | IC50 (CYP3A4; [10]): > 30000 nM | IC50 (CYP2C9): > 30000 nM | IC50 [2, 11]: 157 nM | IC50 [2, 12]: 29 nM | IC50 [2, 13]: 91 nM | IC50 [2, 14]: 92 nM | IC50 (JAK2): 153 nM | selectivity for TYK2 compared to JAK2 (JAK2): approximately 32 fold | Selectivity v TYK2: JAK2 (JAK2): 32.5 | IC50 (CYP1A2): > 30000 nM | IC50 (CYP2D6): > 30000 nM | hepatocyte CLint [4]: 8.8 µL/min/1e6 cells | half-life ([4]; read-out: Dog T1/2): 3.08 h
